Test results taken from patent publication US20150094474A1, “AGRICULTURAL CHEMICALS” (Redx Pharma Ltd., priority 2012, published 2015).

How the values were obtained:
[1] = system: barley; test: Herbicidal bioassay, barley (% necrosis); type: in vivo
Experimental: (§1) A laboratory bioassay was conducted to screen ten compounds (Fluazifop (25); Ethyl fluazifop (62); five fluazifop analogues: 27, 28, 63, 64 and 65; mesofulfuron (6); and two mesosulfuron analogues: 8 and 61. for activity against Lolium perenne, barley, peas and Chinese cabbage. Compounds were diluted in DMSO. Controls were performed using both DMSO and water.
(§2) Plants were obtained as seeds and were grown to the 2-4 true leaf stage. Plants were grown individually in seed trays. Each plant (in an approximately 3 cm diameter plug) was then detached from the tray for spraying. Environmental conditions were closely monitored and recorded and were within the optimal range of the target species.
(§3) The compounds were screened at a range of six concentrations, eg. 0.05%, 0.01%, 0.005%, 0.001%, 0.0005% and 0.0001%. Treatments will be applied directly onto the plants, using a potter tower.
(§4) One plant of each type will be sprayed using a potter tower. The 4 different types of weeds will be placed in a 10 cm diameter area underneath the potter sprayer and sprayed simultaneously. The growth of the plants and any Phytotoxicity effects will then be assessed at specified growth intervals, according to EPPO guideline PP1/135. Five replicates will be performed for each treatment, for each species.

[2] = system: peas; test: Herbicidal bioassay, peas (% necrosis); type: in vivo
Experimental: as §1, §2, §3, §4

CC(CO)Oc1ccc(Oc2ccc(C(F)(F)F)cn2)cc1 (stereo not drawn) [Compound 27, 2-[4-[[5-(Trifluoromethyl)-2-pyridyl]oxy]phenoxy]propan-1-ol]
C (less than 50% necrosis): Sum of % necrosis in barley ([1]; Dose 0.000001, Day 0) | Sum of % necrosis in barley ([1]; Dose 0.000001, Day 3) | Sum of % necrosis in barley ([1]; Dose 0.000001, Day 7) | Sum of % necrosis in barley ([1]; Dose 0.000001, Day 10) | Sum of % necrosis in barley ([1]; Dose 0.000001, Day 14) | Sum of % necrosis in barley ([1]; Dose 0.000001, Day 21) | Sum of % necrosis in barley ([1]; Dose 0.000005, Day 0) | Sum of % necrosis in barley ([1]; Dose 0.000005, Day 3) | Sum of % necrosis in barley ([1]; Dose 0.000005, Day 7) | Sum of % necrosis in barley ([1]; Dose 0.000005, Day 10) | Sum of % necrosis in barley ([1]; Dose 0.000005, Day 14) | Sum of % necrosis in barley ([1]; Dose 0.000005, Day 21) | Sum of % necrosis in barley ([1]; Dose 0.00001, Day 0) | Sum of % necrosis in barley ([1]; Dose 0.00001, Day 3) | Sum of % necrosis in barley ([1]; Dose 0.00001, Day 7) | Sum of % necrosis in barley ([1]; Dose 0.00001, Day 10) | Sum of % necrosis in barley ([1]; Dose 0.00001, Day 14) | Sum of % necrosis in barley ([1]; Dose 0.00001, Day 21) | Sum of % necrosis in barley ([1]; Dose 0.00005, Day 0) | Sum of % necrosis in barley ([1]; Dose 0.00005, Day 3) | Sum of % necrosis in barley ([1]; Dose 0.00005, Day 7) | Sum of % necrosis in barley ([1]; Dose 0.00005, Day 10) | Sum of % necrosis in barley ([1]; Dose 0.00005, Day 14) | Sum of % necrosis in barley ([1]; Dose 0.00005, Day 21) | Sum of % necrosis in barley ([1]; Dose 0.0001, Day 0) | Sum of % necrosis in barley ([1]; Dose 0.0001, Day 3) | Sum of % necrosis in barley ([1]; Dose 0.0001, Day 7) | Sum of % necrosis in barley ([1]; Dose 0.0001, Day 10) | Sum of % necrosis in barley ([1]; Dose 0.0001, Day 14) | Sum of % necrosis in barley ([1]; Dose 0.0001, Day 21) | Sum of % necrosis in barley ([1]; Dose 0.0005, Day 0) | Sum of % necrosis in barley ([1]; Dose 0.0005, Day 3) | Sum of % necrosis in barley ([1]; Dose 0.0005, Day 7) | Sum of % necrosis in barley ([1]; Dose 0.0005, Day 10) | Sum of % necrosis in barley ([1]; Dose 0.0005, Day 14) | Sum of % necrosis in barley ([1]; Dose 0.0005, Day 21) | Sum of % necrosis in Peas ([2]; Dose 0.000001, Day 0) | Sum of % necrosis in Peas ([2]; Dose 0.000001, Day 1) | Sum of % necrosis in Peas ([2]; Dose 0.000001, Day 3) | Sum of % necrosis in Peas ([2]; Dose 0.000001, Day 7) | Sum of % necrosis in Peas ([2]; Dose 0.000001, Day 10) | Sum of % necrosis in Peas ([2]; Dose 0.000001, Day 14) | Sum of % necrosis in Peas ([2]; Dose 0.000001, Day 21) | Sum of % necrosis in Peas ([2]; Dose 0.000005, Day 0) | Sum of % necrosis in Peas ([2]; Dose 0.000005, Day 1) | Sum of % necrosis in Peas ([2]; Dose 0.000005, Day 3) | Sum of % necrosis in Peas ([2]; Dose 0.000005, Day 7) | Sum of % necrosis in Peas ([2]; Dose 0.000005, Day 10) | Sum of % necrosis in Peas ([2]; Dose 0.000005, Day 14) | Sum of % necrosis in Peas ([2]; Dose 0.000005, Day 21) | Sum of % necrosis in Peas ([2]; Dose 0.00001, Day 0) | Sum of % necrosis in Peas ([2]; Dose 0.00001, Day 1) | Sum of % necrosis in Peas ([2]; Dose 0.00001, Day 3) | Sum of % necrosis in Peas ([2]; Dose 0.00001, Day 7) | Sum of % necrosis in Peas ([2]; Dose 0.00001, Day 10) | Sum of % necrosis in Peas ([2]; Dose 0.00001, Day 14) | Sum of % necrosis in Peas ([2]; Dose 0.00001, Day 21) | Sum of % necrosis in Peas ([2]; Dose 0.00005, Day 0) | Sum of % necrosis in Peas ([2]; Dose 0.00005, Day 1) | Sum of % necrosis in Peas ([2]; Dose 0.00005, Day 3) | Sum of % necrosis in Peas ([2]; Dose 0.00005, Day 7) | Sum of % necrosis in Peas ([2]; Dose 0.00005, Day 10) | Sum of % necrosis in Peas ([2]; Dose 0.00005, Day 14) | Sum of % necrosis in Peas ([2]; Dose 0.00005, Day 21) | Sum of % necrosis in Peas ([2]; Dose 0.0001, Day 0) | Sum of % necrosis in Peas ([2]; Dose 0.0001, Day 1) | Sum of % necrosis in Peas ([2]; Dose 0.0001, Day 3) | Sum of % necrosis in Peas ([2]; Dose 0.0001, Day 7) | Sum of % necrosis in Peas ([2]; Dose 0.0001, Day 10) | Sum of % necrosis in Peas ([2]; Dose 0.0001, Day 14) | Sum of % necrosis in Peas ([2]; Dose 0.0001, Day 21) | Sum of % necrosis in Peas ([2]; Dose 0.0005, Day 0) | Sum of % necrosis in Peas ([2]; Dose 0.0005, Day 1) | Sum of % necrosis in Peas ([2]; Dose 0.0005, Day 3) | Sum of % necrosis in Peas ([2]; Dose 0.0005, Day 7) | Sum of % necrosis in Peas ([2]; Dose 0.0005, Day 10) | Sum of % necrosis in Peas ([2]; Dose 0.0005, Day 14) | Sum of % necrosis in Peas ([2]; Dose 0.0005, Day 21)
